Results reported in patent US20160367497A1, “METHODS AND COMPOSITIONS FOR TREATING NEUROPATHIES” (Washington University, priority 2007, published 2016).

Experiments:
[1] = tested on: DRG neuronal explant cultures; experiment: in vitro Wallerian degeneration assay, DRG explant neurite transection; type: cell-based, mouse; settings: for neurite protection after transection: 1 mM applied for 24 hours before neurite transection; for increase in intact neurites at 48 hours after transection: 1 mM exogenous application for 24 hours
Protocol: To identify the mechanism of delayed axonal degeneration mediated by the Wlds protein, we employed an in-vitro Wallerian degeneration model. Primary DRG explant neurons were infected with lentivirus expressing the appropriate proteins, and axons were injured by either removal of the neuronal cell body (transection) or growth in vincristine (toxic).
Mouse DRG explants from E12.5 embryos were cultured in the presence of 1 nM nerve growth factor. Non-neuronal cells were removed from the cultures by adding 5-fluorouracil to the culture medium. Transection of neurites was performed at 10-20 DIV using an 18-gauge needle to remove the neuronal cell bodies. Incubation with β-nicotinamide adenine dinucleotide (Sigma) or Sirtinol (Calbiochem) was performed using conditions indicated in the text or figures.
Quantitative analysis of axonal degeneration was performed as previously described (Zhai, et al., Neuron 39:217-25, 2003). Briefly, the cultures were examined using phase contrast microscopy at the indicated times. Axons with a fragmented, non-refractile appearance were designated as “degenerated.” At each time point, at least 200 singly distinguishable axons were blindly scored from several randomly taken images of each culture. Each condition was tested in triplicate explants in each experiment. Results were obtained from 2-4 independent experiments for each condition. Statistical analysis was performed by Student's T test. For calculations of neurite-covered area, digitally captured images from quadruplicate samples of two independent experiments were analyzed using analysis 3.1 software (Soft Imaging System, Lakewood, Colo.).
Cell culture, in vitro axotomy, and quantification of axonal degeneration. Mouse DRG explants from E12.5 embryos were cultured in the DMEM containing 10% FCS and 1 nM nerve growth factor. Non-neuronal cells were removed from the cultures by adding 5-fluorouracil to the culture media. Transection of neurites was performed at 14-21 DIV using an 18-gauge needle to remove the neuronal cell bodies. Lentiviral expression vectors were generated. Lentiviral infection was performed 3-7 days prior to axonal transection for 24 hr. Quantitative analysis of neurite degeneration was performed.

[2] = tested on: optic nerve (retinal ganglion cell axons); experiment: optic nerve transection after intravitreal injection, neurofilament Western blot; type: in vivo, rat; settings: 24 hours before transection, 4 days after transection
Protocol: FIG. 9 illustrates optic nerve transection after intravitreal injection of NAD biosynthetic substrates NAD, NMN, NmR, or Nam was injected into intravitreal compartment of left rat eye and allowed to incorporate retinal ganglion cells for 24 hours after which, left optic nerve was transected by eye enucleation and right and left optic nerves were collected at 4 days after transection and analyzed by Western blotting in which optic nerves transected from […] without any treatment prior to axotomy were used for negative control; showing in the figure, the quantitative analysis data of percentage of remaining neurofilament immunoreactivity from transected optic nerve relative to non-transected±S.D.
Administration of NAD biosynthetic substrates and optic Nerve transection. Nam, NMN, NmR, or NAD was dissolved in PBS at the concentration of 100 mM or 1 M. Each of 5 μl solution was injected into left intravitreal component under the anesthesia at a rate of […]. The left optic nerve was transected at 24 hours after intravitreal injection and optic nerve was recovered at indicated time. Optic nerve tissue was homogenized in 100 μl of a buffer containing 100 mM tris-HCl (pH 6.8), 1% SDS, and 1 mM DTT. Fifty μg of protein for each sample was analyzed by the Western blotting using anti-neurofilament antibody 2H3 (Developmental Studies Hybridoma Center) and peroxidase-conjugated secondary antibody (Jackson ImmunoResearch). The degeneration rate was calculated from the ratio of the neurofilament immunoreactivity of transected vs. contralateral nerves.
Transection of optic nerve is an in vivo model which can be used to investigate mechanisms leading to Wallerian degeneration and following retinal ganglion cell (RGC) death observed in human diseases such as glaucoma. In the C57BL/Wlds mouse strain, optic nerve degeneration during Wallerian degeneration after axotomy is dramatically slowed. In addition, intravitreal injection is used for screening of compounds that protect RGC axon from degeneration in vivo and thus we can asses the axon protective effect of each NAD biosynthetic substrates in vive by intraocular injection of compounds including NAD, NMN, NmR, and Nam. From in vitro Wallerian degeneration assay, 1 mM of NAD, NMN, and NmR in the culture media is enough to protect axon from degeneration. We initially injected 5 μl of 100 mM or 1 M NAD solution into left intravitreal compartment. After 24 hours incubation, left optic nerve was transected and control (right) and axotomized (left) optic nerve were collected at 3, 4, and 5 days after transection. Neurofilament immunoreactivity from the axotomized optic nerve was measured and normalized against the value obtained from the right side of the optic nerve.

[3] = tested on: neuro2A cells; experiment: cellular ATP levels, luciferase-based assay in neuro2A cells; type: cell-based; settings: 2 hr
Protocol: To explore the role of polyphenols, in particular, of resveratrol, we tested whether resveratrol altered the activity of AMPK in neuronal cells. Neuro2a neuroblastoma cells were treated with resveratrol (10 μM) and AMPK activation was examined using phospho-AMPK specific antibodies. […] To confirm that AMPK activation by resveratrol results in typical AMPK-mediated downstream responses, we monitored phosphorylation of ACC (acetyl Co-A carboxylase), a primary target of activated AMPK. […] To examine a potential mechanism of resveratrol-mediated AMPK activation, we measured cellular ATP levels as a decreased ATP:AMP ratio increases the phosphorylation of AMPK. ATP levels were monitored using a luciferase-based assay in neuro2A cells treated with resveratrol or Oligomycin, an inhibitor of mitochondrial oxidative phosphorylation and therefore ATP production. While the ATP concentration dropped from 5.874 μM in DMSO-treated cells (control) to 0.976 μM in Oligomycin treated cells within 2 hr, the ATP concentration in resveratrol-treated Neuro2a cells was not altered from control either at 2 hr (6.33 μM) or 24 hr (6.42 μM).

With `NC(=O)c1cccc(N)c1` [3AB, 3-aminobenzamide, reference compound] the “effect on NAD-dependent axonal protection (NDAP)” value ([1]; neurons cultured in 1 mM NAD, Sirtinol 100 μM, 3AB 20 mM or siRNA lentivirus, 12 to 72 hr after transection) was “had no effect on NDAP”.

For `NC(=O)c1ccc[n+]([C@@H]2O[C@H](COP(=O)([O-])OP(=O)(O)OC[C@H]3O[C@@H](n4cnc5c(N)ncnc54)[C@H](O)[C@@H]3O)[C@@H](O)[C@H]2O)c1` [NAD, nicotinamide adenine dinucleotide], the “neurofilament immunoreactivity of axotomized optic nerve, of non-axotomized optic nerve” value ([2]; 5 μl of 100 mM intravitreal) was 78±22% and the “neurofilament immunoreactivity of axotomized optic nerve, of non-axotomized optic nerve” value ([2]; 5 μl of 1 M intravitreal) was 77±27%.

In the case of `NC(=O)c1ccc[n+]([C@@H]2O[C@H](COP(=O)([O-])O)[C@@H](O)[C@H]2O)c1` [NMN, nicotinamide mononucleotide], the “neurite protection after transection” value [1] was “successfully saved neurites from degeneration”, the “increase in intact neurites at 48 hours after transection” value (“increase in intact neurites at 48 hours” below) [1] was “comparable increase in intact neurites” and the “neurofilament immunoreactivity of axotomized optic nerve, of non-axotomized optic nerve” value ([2]; 5 μl of 100 mM intravitreal) was 60±25%.

With `O=C(O)c1cccnc1` [Na, nicotinic acid] the “neurite protection after transection” value [1] was “failed to save neurites”.

In the case of `Nc1ncnc2c1ncn2[C@@H]1O[C@H](COP(=O)(O)OP(=O)(O)OC[C@H]2O[C@@H]([n+]3cccc(C(=O)O)c3)[C@H](O)[C@@H]2O)[C@@H](O)[C@H]1O` [NaAD, nicotininc acid adenine dinucleotide], the “neurite protection after transection” value [1] was “slight protection” and the “increase in intact neurites at 48 hours” value [1] was “less increase in intact neurites at 48 hours compared with NAD”.

In the case of `O=C(O)c1ccc[n+]([C@@H]2O[C@H](COP(=O)(O)O)[C@@H](O)[C@H]2O)c1` [NaMN, nicotinate mononucleotide], the “neurite protection after transection” value [1] was “saved neurites as well as NAD” and the “increase in intact neurites at 48 hours” value [1] was “comparable increase in intact neurites”.

In the case of `NC(=O)c1ccc[n+]([C@@H]2O[C@H](CO)[C@@H](O)[C@H]2O)c1` [NmR, nicotinamide riboside], the “neurite protection after transection” value [1] was “saved neurites as well as NAD”, the “increase in intact neurites at 48 hours” value [1] was “comparable increase in intact neurites” and the “neurofilament immunoreactivity of axotomized optic nerve, of non-axotomized optic nerve” value ([2]; 5 μl of 100 mM intravitreal) was 72±19%.

With `CC[C@H]1/C=C/C=C/C[C@@H](C)[C@H](O)[C@@](C)(O)C(=O)[C@@H](C)[C@H](O)[C@@H](C)C(=O)[C@@H](C)[C@H](O)[C@@H](C)/C=C/C(=O)O[C@@H]2[C@H](C)[C@H](CC1)O[C@]1(CC[C@H](C)[C@H](C[C@@H](C)O)O1)[C@H]2C` [Oligomycin, reference compound] the ATP concentration [3] was 0.976 µM.
